Experimental data taken from US7271187B2, “Compositions and methods for promoting tissue regeneration” (priority 2000, dated 2007).

Tested on: spinal cord of an injured recipient animal
Experiment: Bone marrow cell implantation at spinal cord injury site with BrdU labelling
Format: in vivo, rat
Details: 12 weeks after implantation of bone marrow cells from orally treated donor
Protocol: In preferred embodiments, the invention relates to regenerating nerve tissue in vivo. Methods of the invention include administering a therapeutically effective dose of a composition of the invention to a first mammal in need of neural regeneration. In some embodiments, a compound of Formula (I) or Formula (II) is administered, preferably orally administered, to a mammal in need of tissue regeneration, preferably neural tissue regeneration. In some embodiments, methods of the invention comprise administering a compound of Formula (I) or Formula (II) to a first mammal, harvesting cells from the first mammal after administration of the compound and subsequently delivering the harvested cells locally at a site where increased neural expression or increased neural regeneration is needed, wherein the injury site can be in the first mammal or in a second mammal. In some embodiments, the compositions of the invention can be administered intralesionally. Preferably, the harvested cells are from any type of stem cell, for example bone marrow cells. For example, bone marrow cells can be collected from a donor animal (e.g., a rat) within two weeks, preferably within three to seven days, after oral administration of N-[4-[(4-fluorophenyl)sulfonyl]phenyl]acetamide in a pharmaceutically acceptable carrier to the donor animal. […]

With CC(=O)Nc1ccc(S(=O)(=O)c2ccc(F)cc2)cc1 [N-[4-[(4-fluorophenyl)sulfonyl]phenyl]acetamide] the “BrdU incorporation and expression of nestin, beta-tubulin and GFAP in spinal cord tissue” value was “shows incorporation of BrdU in cell nuclei, as well as expression of nestin, beta-tubulin and GFAP”.
